The results in this text go back to patent US7674819B2 (Warner-Lambert Company LLC, priority 2005, dated 2010).

One experiment addresses T1, hAR (Homo sapiens, UniProt P10275).
T1 sequence (P10275 1-920): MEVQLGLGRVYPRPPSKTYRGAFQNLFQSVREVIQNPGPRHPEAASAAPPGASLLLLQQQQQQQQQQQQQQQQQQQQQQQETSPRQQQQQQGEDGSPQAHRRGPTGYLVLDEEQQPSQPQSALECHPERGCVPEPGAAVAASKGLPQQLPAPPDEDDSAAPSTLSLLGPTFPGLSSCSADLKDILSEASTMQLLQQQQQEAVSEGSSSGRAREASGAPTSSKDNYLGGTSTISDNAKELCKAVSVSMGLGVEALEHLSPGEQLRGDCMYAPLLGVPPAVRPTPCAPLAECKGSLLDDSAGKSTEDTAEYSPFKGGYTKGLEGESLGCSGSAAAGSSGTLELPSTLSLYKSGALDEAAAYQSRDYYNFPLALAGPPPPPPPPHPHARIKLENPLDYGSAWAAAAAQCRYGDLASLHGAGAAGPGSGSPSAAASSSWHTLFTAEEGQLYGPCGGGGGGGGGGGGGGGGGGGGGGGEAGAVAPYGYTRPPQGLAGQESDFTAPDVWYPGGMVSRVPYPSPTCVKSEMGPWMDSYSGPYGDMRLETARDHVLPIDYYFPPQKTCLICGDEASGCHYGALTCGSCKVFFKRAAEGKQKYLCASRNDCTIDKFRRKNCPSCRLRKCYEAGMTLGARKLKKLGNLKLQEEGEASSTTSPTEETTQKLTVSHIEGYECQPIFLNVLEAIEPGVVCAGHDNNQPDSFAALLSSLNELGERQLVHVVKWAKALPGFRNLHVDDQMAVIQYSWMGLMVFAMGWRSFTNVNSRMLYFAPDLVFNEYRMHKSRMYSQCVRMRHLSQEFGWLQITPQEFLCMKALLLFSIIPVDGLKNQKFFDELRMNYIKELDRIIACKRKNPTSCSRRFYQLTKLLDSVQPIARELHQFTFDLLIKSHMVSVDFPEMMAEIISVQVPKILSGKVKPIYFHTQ
Put plainly: Competitive binding of 3H-DHT to baculovirus/Sf9 generated hAR extracts. The settings on record: one hour at 4° C., mean of multiple tests. The essentials: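 Baculovirus/Sf9-expressed hAR extract incubated with test compound, hydroxylapatite and 1 nM 3H-DHT tracer for 1 h at 4° C, then washed free of unbound tracer. Affinity given as concentration inhibiting half of maximal 3H-DHT binding.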

A further experiment deals with T2, androgen receptor (Homo sapiens, UniProt P10275).
T2 sequence (P10275 1-920 Q868H): T1 sequence (P10275 1-920) with Q868H
Description: AR Antagonist Cell Assay (MDA-MB453-MMTV clone 54-19, luciferase reporter). It counts as cell-based. Particulars: inhibition of induction by DHT (final concentration at 100 μM), 17 hr, compound 0.32-1000 nM, mean of multiple tests. The essentials: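 MDA-MB453 breast tumour cells stably carrying an ARE-containing MMTV promoter driving firefly luciferase, plated overnight at 37° C in charcoal-treated serum medium. DHT added (final […]) and incubated 17 hr at 37° C. Luminescence read after adding luciferase buffer; values are means of multiple tests.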

[1] abbreviates: concentration at which one half of maximum binding of 1 nM 3H-DHT to hAR is inhibited, read-out: IC50.
The mark [2] stands for this setting: IC50, concentration at which one half of maximum binding of 1 nM 3H-DHT to hAR is inhibited.

Numbering of substitutions follows the chain as printed. Read-outs that look alike come from different tables or passages of the source.

Usually IC50 stands for the point on the concentration scale where inhibition reaches its midpoint. With `CC1(C)CN(Cc2ccc(C#N)cc2)C(=O)C1Oc1ccc(C#N)c(C(F)(F)F)c1` (centres unmarked) [Example 48, 4-[1-(4-Cyano-benzyl)-4,4-dimethyl-2-oxo-pyrrolidin-3-yloxy]-2-trifluoromethyl-benzonitrile], the IC50 was 0.109 µM at hAR (setting [1]) and 0.062 µM against androgen receptor.

Consider `COc1ccc(Cc2noc(CN3CC(C)(C)C(Oc4ccc(C#N)c(C(F)(F)F)c4)C3=O)n2)cc1` (centres unmarked) [Example 50, 4-{1-[3-(4-Methoxy-benzyl)-[1,2,4]oxadiazol-5-ylmethyl]-4,4-dimethyl-2-oxo-pyrrolidin-3-yloxy}-2-trifluoromethyl-benzonitrile], for which the concentration for half-maximal inhibition (IC50) is 0.152 µM at hAR (setting [1]) and 0.035 µM against androgen receptor.

On to `CC1(C)CN(Cc2nc(-c3ccccc3)no2)C(=O)C1Oc1ccc(C#N)c(C(F)(F)F)c1` (centres unmarked) [Example 52, 4-[4,4-Dimethyl-2-oxo-1-(3-phenyl-[1,2,4]oxadiazol-5-ylmethyl)-pyrrolidin-3-yloxy]-2-trifluoromethyl-benzonitrile], for which the results for the 50% inhibitory concentration (IC50) on hAR (setting [2]) and on androgen receptor were 0.16 µM and 0.054 µM, respectively.

On to `CC1(C)CN(Cc2ccc3ccccc3n2)C(=O)C1Oc1ccc(C#N)c(C(F)(F)F)c1` (centres unmarked) [Example 54, 4-(4,4-Dimethyl-2-oxo-1-quinolin-2-ylmethyl-pyrrolidin-3-yloxy)-2-trifluoromethyl-benzonitrile], for which the values for the IC50 at hAR (setting [1]) and at androgen receptor (read-out: IC50) were 0.217 µM and over 1 µM, respectively.

`CC1(C)CN(Cc2nnc(-c3ccccc3)o2)C(=O)C1Oc1ccc(C#N)c(C(F)(F)F)c1` (centres unmarked) [Example 56, 4-[4,4-Dimethyl-2-oxo-1-(5-phenyl-[1,3,4]oxadiazol-2-ylmethyl)-pyrrolidin-3-yloxy]-2-trifluoromethyl-benzonitrile]: the figures for the IC50 on hAR (setting [2]) and on androgen receptor were 0.171 µM and 0.735 µM, respectively.

For `CC1(C)CN(Cc2ccc3nonc3c2)C(=O)C1Oc1ccc(C#N)c(C(F)(F)F)c1` (centres unmarked) [Example 57, 4-(1-Benzo[1,2,5]oxadiazol-5-ylmethyl-4,4-dimethyl-2-oxo-pyrrolidin-3-yloxy)-2-trifluoromethyl-benzonitrile], the IC50 at hAR (setting [2]) is 0.031 µM; at androgen receptor (read-out: IC50) it was over 1 µM.

With `CC1(C)CN(Cc2ccc(-n3cccn3)cc2)C(=O)C1Oc1ccc(C#N)c(C(F)(F)F)c1` (centres unmarked) [Example 60, 4-[4,4-Dimethyl-2-oxo-1-(4-pyrazol-1-yl-benzyl)-pyrrolidin-3-yloxy]-2-trifluoromethyl-benzonitrile], the IC50 on hAR (setting [1]) was 0.115 µM; on androgen receptor (read-out: IC50), over 1 µM.

For `Cc1ccc(-c2nnc(CN3CC(C)(C)C(Oc4ccc(C#N)c(C(F)(F)F)c4)C3=O)o2)cc1` (centres unmarked) [Example 61, 4-[4,4-Dimethyl-2-oxo-1-(5-p-tolyl-[1,3,4]oxadiazol-2-ylmethyl)-pyrrolidin-3-yloxy]-2-trifluoromethyl-benzonitrile], the IC50 at hAR (setting [1]) stood at 0.101 µM; on androgen receptor it was 0.051 µM.

Take `CC1(C)CN(Cc2nc(-c3ccc([N+](=O)[O-])cc3)cs2)C(=O)C1Oc1ccc(C#N)c(C(F)(F)F)c1` (centres unmarked) [Example 65, 4-{4,4-Dimethyl-1-[4-(4-nitro-phenyl)-thiazol-2-ylmethyl]-2-oxo-pyrrolidin-3-yloxy}-2-trifluoromethyl-benzonitrile]: the results for the IC50 at hAR (setting [2]) and on androgen receptor (read-out: IC50) were 0.038 µM and 0.228 µM, respectively.

For `COc1ccc(-c2nc(CN3CC(C)(C)C(Oc4ccc(C#N)c(C(F)(F)F)c4)C3=O)no2)cc1` (centres unmarked) [Example 66, 4-{1-[5-(4-Methoxy-phenyl)-[1,2,4]oxadiazol-3-ylmethyl]-4,4-dimethyl-2-oxo-pyrrolidin-3-yloxy}-2-trifluoromethyl-benzonitrile], the IC50 on hAR (setting [1]) was found to be 0.142 µM; at androgen receptor, 0.084 µM.

Take `CSCN1CC(C)(C)C(Oc2ccc(C#N)c(C(F)(F)F)c2)C1=O` (centres unmarked) [Example 68, 4-(4,4-Dimethyl-1-methylsulfanylmethyl-2-oxo-pyrrolidin-3-yloxy)-2-trifluoromethyl-benzonitrile]: the IC50 came to 0.133 µM at hAR (setting [1]) and 0.064 µM on androgen receptor.

Take `CC1(C)CN(S(=O)(=O)c2ccccc2)C(=O)C1Oc1ccc(C#N)c(C(F)(F)F)c1` (centres unmarked) [Example 73, 4-(1-Benzenesulfonyl-4,4-dimethyl-2-oxo-pyrrolidin-3-yloxy)-2-trifluoromethyl-benzonitrile]: the IC50 is 0.206 µM at hAR (setting [1]) and 0.049 µM against androgen receptor.

On to `COc1cccc(S(=O)(=O)N2CC(C)(C)C(Oc3ccc(C#N)c(C(F)(F)F)c3)C2=O)c1` (centres unmarked) [Example 74, 4-[1-(3-Methoxy-benzenesulfonyl)-4,4-dimethyl-2-oxo-pyrrolidin-3-yloxy]-2-trifluoromethyl-benzonitrile], for which the IC50 on hAR (setting [1]) came out at 0.106 µM; against androgen receptor it was 0.096 µM.

`CCCS(=O)(=O)N1CC(C)(C)C(Oc2ccc(C#N)c(C(F)(F)F)c2)C1=O` (centres unmarked) [Example 75, 4-[4,4-Dimethyl-2-oxo-1-(propane-1-sulfonyl)-pyrrolidin-3-yloxy]-2-trifluoromethyl-benzonitrile]: the values for the IC50 at hAR (setting [2]) and against androgen receptor were 0.064 µM and 0.016 µM, respectively.

As for `CCS(=O)(=O)N1CC(C)(C)C(Oc2ccc(C#N)c(C(F)(F)F)c2)C1=O` (centres unmarked) [Example 78, 4-(1-Ethanesulfonyl-4,4-dimethyl-2-oxo-pyrrolidin-3-yloxy)-2-trifluoromethyl-benzonitrile], the IC50 at hAR (setting [1]) is 0.103 µM; on androgen receptor (read-out: IC50) it was 0.246 µM.

For the compound `CC1(C)CN(S(=O)(=O)C2CC2)C(=O)C1Oc1ccc(C#N)c(C(F)(F)F)c1` (centres unmarked) [Example 83, 4-(1-Cyclopropanesulfonyl-4,4-dimethyl-2-oxo-pyrrolidin-3-yloxy)-2-trifluoromethyl-benzonitrile], the IC50 on hAR (setting [2]) stood at 0.05 µM; at androgen receptor (read-out: IC50) it was 0.205 µM.

As to `CC1(C)CN(S(=O)(=O)c2ccsc2)C(=O)C1Oc1ccc(C#N)c(C(F)(F)F)c1` (centres unmarked) [Example 84, 4-[4,4-Dimethyl-2-oxo-1-(thiophene-3-sulfonyl)-pyrrolidin-3-yloxy]-2-trifluoromethyl-benzonitrile], the IC50 on hAR (setting [2]) was found to be 0.085 µM; at androgen receptor, 0.055 µM.

With `Cc1csc(S(=O)(=O)N2CC(C)(C)C(Oc3ccc(C#N)c(C(F)(F)F)c3)C2=O)c1` (centres unmarked) [Example 86, 4-[4,4-Dimethyl-1-(4-methyl-thiophene-2-sulfonyl)-2-oxo-pyrrolidin-3-yloxy]-2-trifluoromethyl-benzonitrile], the figures for the IC50 at hAR (setting [1]) and on androgen receptor (read-out: IC50) were 0.14 µM and 0.105 µM, respectively.

On to `Cc1ccsc1S(=O)(=O)N1CC(C)(C)C(Oc2ccc(C#N)c(C(F)(F)F)c2)C1=O` (centres unmarked) [Example 87, 4-[4,4-Dimethyl-1-(3-methyl-thiophene-2-sulfonyl)-2-oxo-pyrrolidin-3-yloxy]-2-trifluoromethyl-benzonitrile], for which the IC50 on hAR (setting [1]) came out at 0.115 µM; on androgen receptor (read-out: IC50) it was 0.502 µM.
